Marks after values point to notes of the source that are not given here.
How the values were obtained:
[1] = Solubility in the oocyte test medium; type: physicochemical
Procedure: Several NMDA receptor blockers were tested. These compounds have very low solubility and have to be dissolved in 100% dimethyl sulfoxide (DMSO) and diluted for use in ND 96 that contained 1% DMSO. Therefore, the effect of 1% DMSO on the response to 10-^4 M NMDA and 5x10-^6 M glycine was examined. DMSO had no effect on NMDA response in three different cells.
The effect of HU-245 was reversible upon return to ND 96 solution.

[2] = test system: mouse; experiment: Mouse hot plate test (55°C) for antinociception; type: in vivo
Procedure: In the hot plate test for analgesia an aluminum surface was maintained at 55 ± 1°C by circulating water through passages in the metal. A clear plastic cylinder 18 cm in diameter and 26 cm high was placed on the surface to prevent escape. The end point was taken when the mouse either performed a hind paw lick or jumped off the surface; in no case were the animals kept for more than 30 secs on the plate. Mice were never used more than one time; control values were always measured at 11 a.m. and test values at 2 p.m. The drugs were administered orally 90 min before the hot plate test. The percent change in response time (latency) was calculated by comparing the mean of the control values with the mean of the test values and statistical signficance determined by a paired t-test analysis using software (Statview, 512) from Brainpower, Inc., Calabasas, Ca.

[3] = test system: N-methyl-D-aspartate (NMDA) induced lethality; experiment: Protection against NMDA induced lethality; type: in vivo, Balb/c male mice; details: 90 min before NMDA (125 mg/kg) s.c., no drug 0/20
Source text: (§1) The present compounds are active in several tests generally used to indicate neuroprotection.

[4] = test system: PAF-Induced Paw Edema; experiment: PAF-induced paw edema (water displacement); type: in vivo, CD-1 female mice; details: oral, 15 min after PAF (1.0 µg s.c.), vs vehicle treated controls
Procedure: A second model, in which edema is induced by platelet activating factor (PAF), was used to evaluate activity.
The conditions were based on those reported previously [Calhoun et al., ibid.]. […] PAF (1.0 µg) or arachidonic acid (1.0 mg) dissolved in 50 µl of 5% ethanol in saline, were injected s.c. into the plantar surface of the right hind paw of CD-1 female mice (20-25 g) obtained from Charles River Labs. The mice were under ether anesthesia during this procedure. The volume of the right foot was measured to the level of the lateral malleous by water displacement before treatment and 15 min after PAF injection or 30 min after archidonate injection. The change in paw volume was calculated for each mouse and the significance for each group was determined by a paired t test analysis.

[5] = test system: mouse; experiment: Ring test for cataleptic effects; type: in vivo; details: 5-min test period, vehicle 7.7 ± 4.4
Procedure: The lack of CNS activity for the compounds described herein may be seen from the data shown in Table V. This was measured by the so-called "ring test" [Pertwee, R.G., et al., J. Pharmacol., 46, 753 (1972)] in which the cataleptic effects of cannabinoids can be quantitated. The compounds produced little or no response when compared with the parent drug.
The cataleptic response was measured using the ring test. Mice were placed on a horizontal wire ring 5.5 cm in diameter, which was attached to a 16 cm vertical rod. The hind paws and fore paws were placed at opposite sides of the ring. It is important that the ambient temperature is maintained at 30°C and that the environment be free of auditory stimuli and bright lights. The criteria for immobility are detailed by Pertwee. The response is calculated as the fraction of time the mouse is immobile over a 5-min test period. Measurements were always done between 2 and 4 p.m. and the animals were used only once.

[6] = test system: NMDA receptor; experiment: NMDA-blocking response in Xenopus oocytes injected with rat brain RNA (two-electrode voltage clamp); type: cell-based
Source text: The oocyte is the most widely used system for studying the molecular, biophysical and pharmacological properties of expressed voltage- or transmitter-operated ion channels. This giant cell offers several advantages for this type of studies. It can be readily used for two-electrode voltage clamp studies, translates injected mRNA from different sources and functionally expresses the translated proteins, and it is also readily amenable for intracellular microinjections. Importantly, the recordings of transmitter- or voltage-incuded currents in a single oocyte are extremely stable and can be done, without rundown, for 2-3 hours; this allows the performance of a full dose-response relation in single oocytes.
Neuronal receptors for excitatory amino acid (EAA) are becoming increasingly important for the understanding of normal and pathological brain function. Quantitative pharmacological studies of EAA receptor/ion channel complex are difficult to study in neurons. Therefore, Xenopus oocyte injected with brain mRNA is now the preparation of choice.
The response to N-methyl-D-aspartate (NMDA) in oocytes injected with rat brain mRNA was characterized and the effects of HU-245 were studied.
Female Xenopus were anesthetized by immersion in water containing 0.15% tricaine methanesulfonate and a small incision was made in the lower adbomen. Ovary fragments were removed into ND-96. […]

[7] = test system: picrotoxin induced lethality; experiment: Protection against picrotoxin induced lethality; type: in vivo, Balb/c male mice; details: drug 10 mg/kg, 120 min before picrotoxin (8 mg/kg) s.c.; no drug 0/17
Source text: as §1

[8] = test system: intraocular pressure; experiment: Reduction of intraocular pressure (anti-glaucoma activity); type: in vivo, rabbits; details: 50 µl drop of a 1% emulsion into the rabbit eye
Procedure: Reduction of intraocular pressure in rabbits was determined by the addition of a 50 µl drop of a 1% emulsion of the cannabinoid into the rabbit eye. This test is a measure of anti-glaucomatic activity.

CCCCCCC(C)(C)c1cc(OC(C)=O)c2c(c1)OC(C)(C)[C@H]1CC=C(C(=O)O)C[C@H]21 [HU-245, (3S,4S)-THC-DMH-7-oic acid, acetate]
solubility compared with prior art compounds [1]: higher than that of prior art compounds
solubility ([1]; nd 96 with 1% dmso, organic solvent or mixture, ND 96 containing 1% DMSO, read-out: solubility (soluble at a concentration of up to)): ≤ 0.1 µM
percent change in latency ([2]; dose 0.025 mg/kg orally 90 min before the hot plate test): 10.7(5) percent
percent change in latency ([2]; dose 0.050 mg/kg orally 90 min before the hot plate test): 66.2(5)* percent
percent change in latency ([2]; dose 0.10 mg/kg orally 90 min before the hot plate test): 62.2(5)* percent
percent change in latency ([2]; dose 0.25 mg/kg orally 90 min before the hot plate test): 68.1(10)* percent
percent change in latency ([2]; dose 0.50 mg/kg orally 90 min before the hot plate test): 49.9(5)* percent
percent change in latency ([2]; dose 1.0 mg/kg orally 90 min before the hot plate test): 12.5(5) percent
Survival rate (number of survivors out of total number of animals used) ([3]; drug 2.5 mg/kg): 6/12
Survival rate (number of survivors out of total number of animals used) ([3]; drug 10 mg/kg): 8/10
percent inhibition of paw edema ([4]; dose 0.10 mg/kg): 37.3* percent
percent inhibition of paw edema ([4]; dose 0.25 mg/kg): 66.9* percent
percent inhibition of paw edema ([4]; dose 0.5 mg/kg): 72.0* percent
Response ± SD (means of the fraction of time the mice remained immobile) ([5]; dose 0.5 mg/kg): 6.8 ± 2.4
Response ± SD (means of the fraction of time the mice remained immobile) ([5]; dose 1.0 mg/kg): 12.0 ± 6.0
response to NMDA ([6]; 10-^6M compound, 10-^4 M NMDA and 5x10-^6 M glycine, membrane potential -60mV, 1 µM): 55 % of control
reversibility of the effect on the NMDA response ([6]; upon return to ND 96 solution): reversible
Survival rate (number of survivors out of total number of animals used) [7]: 5/8
Reduction of intraocular pressure [8]: Significant reduction
